pEC50, pIC50: −log10 of the molar value. Several values for one entry are separate records, joined by “and”; a condition that tells them apart may be missing. Equal entries are not always repeated. Activity calls are given as the source filed them. The rule behind the calls is not given here.
Assays:
[1] = Plasma clearance in rat at 5 uM/kg, iv or 30 uM/kg, po; assay type: ADME, organism-based
[2] = target: T1, Voltage-dependent T-type calcium channel subunit alpha-1H (Homo sapiens, UniProt O95180); assay: Inhibition of human recombinant Cav3.2 channel at 10 uM
T1 sequence (O95180 whole entry): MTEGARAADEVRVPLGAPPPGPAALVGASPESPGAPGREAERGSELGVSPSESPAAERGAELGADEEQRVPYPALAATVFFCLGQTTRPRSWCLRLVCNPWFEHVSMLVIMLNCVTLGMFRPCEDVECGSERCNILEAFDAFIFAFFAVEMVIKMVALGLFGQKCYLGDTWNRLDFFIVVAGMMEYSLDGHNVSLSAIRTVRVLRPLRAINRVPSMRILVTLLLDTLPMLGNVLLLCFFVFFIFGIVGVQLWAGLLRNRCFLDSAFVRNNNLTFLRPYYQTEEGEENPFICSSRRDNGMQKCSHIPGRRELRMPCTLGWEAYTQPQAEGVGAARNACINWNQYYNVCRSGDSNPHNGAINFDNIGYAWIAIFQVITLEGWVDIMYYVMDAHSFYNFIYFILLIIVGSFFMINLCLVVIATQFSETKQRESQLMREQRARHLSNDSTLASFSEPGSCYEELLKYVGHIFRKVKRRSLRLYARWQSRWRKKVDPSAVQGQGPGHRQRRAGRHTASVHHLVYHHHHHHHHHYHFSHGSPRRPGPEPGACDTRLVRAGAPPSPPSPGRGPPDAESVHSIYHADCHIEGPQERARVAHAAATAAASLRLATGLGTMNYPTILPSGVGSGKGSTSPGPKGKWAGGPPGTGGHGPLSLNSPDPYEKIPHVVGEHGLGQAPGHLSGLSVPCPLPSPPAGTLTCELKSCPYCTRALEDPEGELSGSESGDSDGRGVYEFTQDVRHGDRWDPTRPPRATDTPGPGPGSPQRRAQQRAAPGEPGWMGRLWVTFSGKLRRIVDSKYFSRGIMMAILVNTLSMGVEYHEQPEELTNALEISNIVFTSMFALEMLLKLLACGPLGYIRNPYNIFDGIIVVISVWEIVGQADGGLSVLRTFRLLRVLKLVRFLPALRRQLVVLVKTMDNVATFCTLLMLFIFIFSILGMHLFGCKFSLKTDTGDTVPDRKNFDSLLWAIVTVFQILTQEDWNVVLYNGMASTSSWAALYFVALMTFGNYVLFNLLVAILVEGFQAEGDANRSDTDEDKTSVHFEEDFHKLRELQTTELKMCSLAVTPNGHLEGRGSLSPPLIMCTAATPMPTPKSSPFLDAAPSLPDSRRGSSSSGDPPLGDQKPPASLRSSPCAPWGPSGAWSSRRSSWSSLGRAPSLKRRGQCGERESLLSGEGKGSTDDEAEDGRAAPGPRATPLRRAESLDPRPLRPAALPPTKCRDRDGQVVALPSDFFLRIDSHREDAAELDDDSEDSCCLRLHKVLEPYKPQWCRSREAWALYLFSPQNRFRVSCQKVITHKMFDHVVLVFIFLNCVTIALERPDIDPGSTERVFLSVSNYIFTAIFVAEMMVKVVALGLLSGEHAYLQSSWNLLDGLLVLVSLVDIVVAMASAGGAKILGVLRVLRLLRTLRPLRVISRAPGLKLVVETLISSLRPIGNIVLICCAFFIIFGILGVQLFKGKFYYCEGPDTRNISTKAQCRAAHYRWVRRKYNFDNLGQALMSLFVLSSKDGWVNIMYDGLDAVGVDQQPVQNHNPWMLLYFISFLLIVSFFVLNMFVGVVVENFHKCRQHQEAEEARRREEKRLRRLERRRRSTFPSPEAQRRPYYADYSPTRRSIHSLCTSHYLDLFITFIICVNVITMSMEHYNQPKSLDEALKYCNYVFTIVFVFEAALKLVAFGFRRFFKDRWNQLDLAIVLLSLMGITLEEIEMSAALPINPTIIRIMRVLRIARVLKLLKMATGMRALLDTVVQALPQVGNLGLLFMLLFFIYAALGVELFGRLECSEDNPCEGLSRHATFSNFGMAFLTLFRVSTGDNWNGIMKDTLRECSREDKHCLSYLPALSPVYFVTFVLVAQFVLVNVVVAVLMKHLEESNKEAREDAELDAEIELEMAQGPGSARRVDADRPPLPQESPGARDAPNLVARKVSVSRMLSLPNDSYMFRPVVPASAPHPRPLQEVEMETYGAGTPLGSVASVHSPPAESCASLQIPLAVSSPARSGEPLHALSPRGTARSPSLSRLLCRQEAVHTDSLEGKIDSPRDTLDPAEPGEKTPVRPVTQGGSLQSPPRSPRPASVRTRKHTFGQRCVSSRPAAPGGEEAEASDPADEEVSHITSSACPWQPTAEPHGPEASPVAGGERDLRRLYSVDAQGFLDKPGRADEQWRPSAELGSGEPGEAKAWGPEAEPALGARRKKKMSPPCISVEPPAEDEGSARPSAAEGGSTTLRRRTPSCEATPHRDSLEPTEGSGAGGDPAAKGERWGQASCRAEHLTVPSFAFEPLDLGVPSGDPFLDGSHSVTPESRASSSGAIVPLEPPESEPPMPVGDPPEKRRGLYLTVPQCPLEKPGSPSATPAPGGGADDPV

Rattus norvegicus [3] = assay: Antinociceptive activity in Sprague-Dawley rat model of capsaicin-induced secondary mechanical hyperalgesia model assessed as attenuation of nociception at 500 uM/kg, ip administered 1 hr before behavioral testing by von Frey filaments test; assay type: functional, organism-based
[4] = Stability in rat liver microsomes assessed as compound remaining at 1 uM after 30 mins; assay type: ADME; details: read-out: Stability
[5] = Terminal phase volume of distribution in rat at 5 uM/kg, iv or 30 uM/kg, po; assay type: ADME, organism-based; details: in vivo, read-out: Vbeta
[6] = target: T1, Voltage-dependent T-type calcium channel subunit alpha-1H; assay: Inhibition of human recombinant Cav3.2 channel
[7] = Stability in human liver microsomes assessed as compound remaining at 1 uM after 30 mins; assay type: ADME; details: read-out: Stability
[8] = Stability in dog liver microsomes assessed as compound remaining at 1 uM after 30 mins; assay type: ADME, Canis lupus familiaris; details: read-out: Stability
[9] = Stability in monkey liver microsomes assessed as compound remaining at 1 uM after 30 mins; assay type: ADME, Macaca mulatta; details: rhesus monkey, read-out: Stability
[10] = target: Voltage-dependent T-type calcium channel subunit alpha-1H (Rattus norvegicus, UniProt Q9EQ60); assay: Inhibition of Cav3.2 channel in rat DRG neurons assessed as reduction in LVA currents
Sequence of Voltage-dependent T-type calcium channel subunit alpha-1H (Rattus norvegicus, UniProt Q9EQ60) (Q9EQ60 whole entry): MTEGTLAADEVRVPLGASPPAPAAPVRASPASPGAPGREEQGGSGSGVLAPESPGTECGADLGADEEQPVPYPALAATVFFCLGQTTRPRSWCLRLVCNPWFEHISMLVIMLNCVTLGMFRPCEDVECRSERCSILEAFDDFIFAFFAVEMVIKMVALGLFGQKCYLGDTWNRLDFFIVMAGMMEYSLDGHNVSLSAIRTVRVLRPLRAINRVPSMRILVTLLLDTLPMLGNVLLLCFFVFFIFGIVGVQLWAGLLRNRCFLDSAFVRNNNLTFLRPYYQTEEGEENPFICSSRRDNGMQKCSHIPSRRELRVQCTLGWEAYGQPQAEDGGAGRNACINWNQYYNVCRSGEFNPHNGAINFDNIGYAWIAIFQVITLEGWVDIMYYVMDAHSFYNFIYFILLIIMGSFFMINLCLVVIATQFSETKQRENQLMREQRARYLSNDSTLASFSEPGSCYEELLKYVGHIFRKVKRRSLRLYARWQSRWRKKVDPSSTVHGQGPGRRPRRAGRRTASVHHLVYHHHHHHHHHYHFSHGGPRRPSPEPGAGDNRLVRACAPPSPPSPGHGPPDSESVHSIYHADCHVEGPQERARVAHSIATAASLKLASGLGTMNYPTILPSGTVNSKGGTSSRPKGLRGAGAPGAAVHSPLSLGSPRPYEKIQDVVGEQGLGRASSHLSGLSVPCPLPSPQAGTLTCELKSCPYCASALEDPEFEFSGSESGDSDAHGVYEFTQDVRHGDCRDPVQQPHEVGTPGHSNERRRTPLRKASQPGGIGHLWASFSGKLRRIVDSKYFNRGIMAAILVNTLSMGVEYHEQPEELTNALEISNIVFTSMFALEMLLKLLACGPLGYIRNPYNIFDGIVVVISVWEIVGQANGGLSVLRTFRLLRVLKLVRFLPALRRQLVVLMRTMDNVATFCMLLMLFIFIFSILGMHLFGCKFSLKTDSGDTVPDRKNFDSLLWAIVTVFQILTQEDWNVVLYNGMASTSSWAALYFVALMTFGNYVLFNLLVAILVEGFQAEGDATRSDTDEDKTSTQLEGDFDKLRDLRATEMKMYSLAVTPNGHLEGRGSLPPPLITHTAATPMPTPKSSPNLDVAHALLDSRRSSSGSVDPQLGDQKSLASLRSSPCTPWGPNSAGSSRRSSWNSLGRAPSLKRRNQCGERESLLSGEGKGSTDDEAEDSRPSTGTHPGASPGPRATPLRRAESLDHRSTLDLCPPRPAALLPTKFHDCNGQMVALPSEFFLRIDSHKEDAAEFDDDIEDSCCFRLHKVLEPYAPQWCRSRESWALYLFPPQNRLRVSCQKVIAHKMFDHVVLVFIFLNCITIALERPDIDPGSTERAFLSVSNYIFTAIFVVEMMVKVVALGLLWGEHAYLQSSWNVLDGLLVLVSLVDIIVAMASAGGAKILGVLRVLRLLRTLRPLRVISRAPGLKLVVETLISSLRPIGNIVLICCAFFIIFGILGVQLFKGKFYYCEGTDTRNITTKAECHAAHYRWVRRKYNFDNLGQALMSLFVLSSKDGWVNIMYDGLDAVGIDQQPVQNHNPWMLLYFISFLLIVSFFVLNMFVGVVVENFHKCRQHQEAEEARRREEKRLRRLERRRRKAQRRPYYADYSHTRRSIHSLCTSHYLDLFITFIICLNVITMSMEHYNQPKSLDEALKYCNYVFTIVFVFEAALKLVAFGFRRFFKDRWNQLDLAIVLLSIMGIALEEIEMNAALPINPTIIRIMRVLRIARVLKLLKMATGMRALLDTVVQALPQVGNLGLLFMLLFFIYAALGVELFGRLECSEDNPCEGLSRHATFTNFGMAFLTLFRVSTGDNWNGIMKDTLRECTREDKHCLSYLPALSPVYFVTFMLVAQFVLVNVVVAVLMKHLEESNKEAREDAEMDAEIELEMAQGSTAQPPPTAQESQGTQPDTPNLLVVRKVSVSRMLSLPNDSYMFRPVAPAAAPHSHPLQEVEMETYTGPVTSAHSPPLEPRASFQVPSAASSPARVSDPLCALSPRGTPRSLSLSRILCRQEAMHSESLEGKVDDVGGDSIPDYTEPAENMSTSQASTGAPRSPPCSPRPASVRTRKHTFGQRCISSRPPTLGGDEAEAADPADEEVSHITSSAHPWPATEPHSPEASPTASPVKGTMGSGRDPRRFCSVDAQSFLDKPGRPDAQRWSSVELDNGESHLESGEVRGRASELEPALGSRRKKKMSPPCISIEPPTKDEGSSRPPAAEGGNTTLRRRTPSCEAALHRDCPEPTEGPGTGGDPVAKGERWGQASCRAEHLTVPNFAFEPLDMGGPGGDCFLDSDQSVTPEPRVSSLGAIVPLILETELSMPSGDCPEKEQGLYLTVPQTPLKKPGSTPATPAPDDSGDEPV

[11] = Aqueous solubility in phosphate buffer at pH 7.4; assay type: physicochemical
[12] = Solubility in 0.1 HCl solution; assay type: physicochemical
[13] = Protein binding in rat; assay type: ADME, organism-based; details: plasma, read-out: PB (converted)
[14] = Protein binding in human; assay type: ADME, organism-based; details: plasma, read-out: PB (converted)
[15] = target: T2, Nuclear receptor subfamily 1 group I member 2 (Homo sapiens, UniProt O75469); assay: Activation of PXR (unknown origin) assessed as induction of CYP3A4; assay type: ADME
T2 sequence (O75469 whole entry): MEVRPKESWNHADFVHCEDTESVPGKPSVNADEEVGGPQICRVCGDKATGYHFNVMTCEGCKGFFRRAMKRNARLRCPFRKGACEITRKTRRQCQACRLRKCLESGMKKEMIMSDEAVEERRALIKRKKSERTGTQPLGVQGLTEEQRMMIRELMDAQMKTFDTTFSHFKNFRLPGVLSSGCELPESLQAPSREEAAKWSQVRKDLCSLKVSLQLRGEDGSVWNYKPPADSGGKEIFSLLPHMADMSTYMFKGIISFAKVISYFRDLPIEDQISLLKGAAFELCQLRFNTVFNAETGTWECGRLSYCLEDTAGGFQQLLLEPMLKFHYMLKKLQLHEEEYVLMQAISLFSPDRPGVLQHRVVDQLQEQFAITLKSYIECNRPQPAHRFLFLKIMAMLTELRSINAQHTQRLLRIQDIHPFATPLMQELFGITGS

[16] = target: T3, Aryl hydrocarbon receptor (Homo sapiens, UniProt P35869); assay: Activation of aryl hydrocarbon receptor (unknown origin) assessed as induction of CYP1A2 mRNA expression; assay type: ADME
T3 sequence (P35869 whole entry): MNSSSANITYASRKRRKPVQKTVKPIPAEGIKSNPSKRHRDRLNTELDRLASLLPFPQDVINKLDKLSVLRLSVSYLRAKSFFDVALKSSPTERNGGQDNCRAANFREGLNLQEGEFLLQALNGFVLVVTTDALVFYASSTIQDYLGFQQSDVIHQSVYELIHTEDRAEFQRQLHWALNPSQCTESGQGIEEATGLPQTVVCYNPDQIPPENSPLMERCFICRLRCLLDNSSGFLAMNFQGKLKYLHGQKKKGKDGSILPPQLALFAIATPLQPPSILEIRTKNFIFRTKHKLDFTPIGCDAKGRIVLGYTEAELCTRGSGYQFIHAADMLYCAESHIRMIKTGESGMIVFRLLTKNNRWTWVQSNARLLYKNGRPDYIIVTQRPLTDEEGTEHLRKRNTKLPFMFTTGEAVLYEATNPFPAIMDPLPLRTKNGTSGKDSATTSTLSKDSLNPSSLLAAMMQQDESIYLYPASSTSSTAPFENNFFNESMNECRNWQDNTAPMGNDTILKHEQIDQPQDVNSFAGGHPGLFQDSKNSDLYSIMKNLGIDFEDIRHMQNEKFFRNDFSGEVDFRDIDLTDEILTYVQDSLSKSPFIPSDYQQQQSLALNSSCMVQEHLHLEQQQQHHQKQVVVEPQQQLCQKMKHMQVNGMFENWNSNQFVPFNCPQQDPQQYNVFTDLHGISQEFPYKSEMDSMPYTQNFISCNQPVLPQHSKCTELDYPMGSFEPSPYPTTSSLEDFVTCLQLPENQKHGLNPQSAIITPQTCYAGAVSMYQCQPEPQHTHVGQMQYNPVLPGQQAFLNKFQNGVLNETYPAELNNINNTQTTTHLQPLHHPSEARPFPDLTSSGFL

Rattus norvegicus [17] = assay: Antinociceptive activity in Sprague-Dawley rat model of capsaicin-induced secondary mechanical hyperalgesia model assessed as attenuation of nociception at 3 to 100 mg/kg, po administered 1 hr before behavioral testing by von Frey filaments test; assay type: functional, organism-based
Rattus norvegicus [18] = assay: Toxicity in orally dosed Sprague-Dawley rat assessed effect on animal balance by Edge test; assay type: organism-based; details: in vivo, po
Rattus norvegicus [19] = assay: Toxicity in orally dosed Sprague-Dawley rat assessed effect on animal motor performance by Edge test; assay type: organism-based; details: in vivo, po
Plasma = assay: Plasma concentration in Sprague-Dawley rat at 30 mg/kg, iv; assay type: ADME, organism-based; details: in vivo
Rattus norvegicus [20] = assay: Cardiovascular toxicity in Sprague-Dawley rat at 30 mg/kg, iv assessed as induction of changes in mean arterial pressure; assay type: organism-based, Artery; details: in vivo
Rattus norvegicus [21] = assay: Cardiovascular toxicity in Sprague-Dawley rat at 30 mg/kg, iv assessed as induction of changes in heart rate; assay type: organism-based; details: in vivo
Rattus norvegicus [22] = assay: Cardiovascular toxicity in Sprague-Dawley rat at 30 mg/kg, iv assessed as induction of changes in left ventricular contractility; assay type: organism-based, Heart left ventricle; details: in vivo
Rattus norvegicus [23] = assay: Cardiovascular toxicity in Sprague-Dawley rat at 30 mg/kg, iv assessed as induction of changes in vascular resistance; assay type: organism-based; details: in vivo

## O=C(c1cccc(S(=O)(=O)Nc2ccccc2F)c1)N1CCN2CCC[C@H]2C1
[1]
  clearance: 56 mL/min/kg
[2]
  inhibition: < 30%

## NCC1(CC(=O)O)CCCCC1
Rattus norvegicus [3]
  Activity: Active

## O=C(c1cccc(S(=O)(=O)Nc2ccccc2F)c1)N1CCN2CCC[C@@H]2C1
[4]
  remaining at 0.5 h, 1 µM: 68%
[5]
  Vd at 5 µmol/kg: 0.65 L/kg
[1]
  clearance: 29.8 mL/min/kg

## O=C(c1cccc(S(=O)(=O)Nc2ccc(C(F)(F)F)cc2)c1)N1CCN2CCC[C@H]2C1
[1]
  clearance: 13.5 mL/min/kg
[2]
  inhibition: < 30%

## O=C(c1cc(S(=O)(=O)Nc2ccccc2F)c(Cl)cc1Cl)N1CCN2CCC[C@@H]2C1
[6]
  pIC50: 4.72

## C[C@@H]1CN(C(=O)c2cccc(S(=O)(=O)Nc3ccc(F)cc3)c2)C[C@H](C)O1
[4]
  remaining at 0.5 h, 1 µM: 46%
[5]
  Vd at 5 µmol/kg: 0.75 L/kg
[1]
  clearance: 27.7 mL/min/kg

## Cl.O=C(c1cc(S(=O)(=O)Nc2ccccc2F)c(F)cc1Cl)N1CCN2CCC[C@@H]2C1
[6]
  pIC50: 5.64
[4]
  remaining at 0.5 h, 1 µM: 81%
[5]
  Vd at 5 µmol/kg: 2.7 L/kg
[1]
  clearance: 9.17 mL/min/kg
[7]
  remaining at 0.5 h, 1 µM: 95%
[8]
  remaining at 0.5 h, 1 µM: 100%
[9]
  remaining at 0.5 h, 1 µM: 88%
[10]
  pIC50: 5.12
[11]
  solubility: 489 µM
[12]
  solubility: > 9500 µM
[13]
  fraction unbound: 0.111
[14]
  fraction unbound: 0.148
[15]
  pEC50: < 5.00
[16]
  pEC50: < 5.00
Rattus norvegicus [17]
  Activity: Dose-dependent effect
Rattus norvegicus [18]
  ED50: > 300 mg kg-1 and 114 ug ml-1
Rattus norvegicus [19]
  ED50: > 300 mg kg-1 and 114 ug ml-1
Plasma
  Cp: 43900 ng/mL
Rattus norvegicus [20]
  Activity: Non-toxic
Rattus norvegicus [21]
  Activity: Non-toxic
Rattus norvegicus [22]
  Activity: Non-toxic
Rattus norvegicus [23]
  Activity: Non-toxic

## CC1Cc2ccccc2N1S(=O)(=O)c1cccc(C(=O)NCC2CCCCC2)c1 (configuration not stated)
[6]
  pIC50: 5.30
[4]
  remaining at 0.5 h, 1 µM: 0.1%

## O=C(c1cccc(S(=O)(=O)Nc2cccc(F)c2F)c1)N1CCN2CCC[C@@H]2C1
[1]
  clearance: 20.2 mL/min/kg
[2]
  inhibition: < 30%

## CC1CC(C)CN(C(=O)c2cccc(S(=O)(=O)N3c4ccccc4CC3C)c2)C1 (configuration not stated)
[6]
  pIC50: 5.52
[4]
  remaining at 0.5 h, 1 µM: 0.3%

## O=C(c1cccc(S(=O)(=O)Nc2cccc(F)c2F)c1)N1CCN2CCC[C@H]2C1
[1]
  clearance: 38 mL/min/kg
[2]
  inhibition: < 30%

## O=C(c1cccc(S(=O)(=O)Nc2ccccc2C(F)(F)F)c1)N1CCN2CCC[C@@H]2C1
[1]
  clearance: 12.3 mL/min/kg
[2]
  inhibition: < 30%

## O=C(c1cccc(S(=O)(=O)Nc2ccc(C(F)(F)F)cc2)c1)N1CCN2CCC[C@@H]2C1
[1]
  clearance: 7.5 mL/min/kg
[2]
  inhibition: < 30%

## CN(c1ccccc1F)S(=O)(=O)c1cc(C(=O)N2CCN3CCC[C@@H]3C2)c(Cl)cc1F
[4]
  remaining at 0.5 h, 1 µM: 0.04%
[7]
  remaining at 0.5 h, 1 µM: < 0.01%

## O=C(c1cccc(S(=O)(=O)Nc2c(F)cccc2F)c1)N1CCN2CCC[C@@H]2C1
[1]
  clearance: 15.3 mL/min/kg
[2]
  inhibition: < 30%

## O=C(c1cccc(S(=O)(=O)Nc2ccccc2Cl)c1)N1CCN2CCC[C@@H]2C1
[1]
  clearance: 32.2 mL/min/kg
[2]
  inhibition: < 30%
